Source: patent US20020156284A1, “Crystalline form of omeprazole” (priority 1998, published 2002)
“Also recorded” adds a separate entry of the source.

Columns and labels:
Format in all cases: physicochemical
[1] = thermodynamic stability of crystal forms
[2] = chemical stability (thermo stability and light stability); settings: compared with omeprazole form B
hygroscopicity = experiment: hygroscopicity
[3] = compared with omeprazole form B, especially at room temperature

chemical stability, such as thermo stability and light stability [2]	hygroscopicity (absolute statement) (hygroscopicity)	hygroscopicity (hygroscopicity; [3])	SMILES	conversion into the other crystal form ([1]; under certain conditions)	thermodynamic stability [1, 3]
			COc1ccc2[nH]c([S+]([O-])Cc3ncc(C)c(OC)c3C)nc2c1 (centres unmarked) [Omeprazole form B, 5-methoxy-2-[[(4-methoxy-3,5-dimethyl-2-pyridinyl)methyl]sulfinyl]-1H-benzimidazole, reference compound]	completely or partly, be converted into omeprazole form A	
better chemical stability	essentially non-hygroscopic	less hygroscopic than omeprazole form B	COc1ccc2[nH]c([S+]([O-])Cc3ncc(C)c(OC)c3C)nc2c1 (centres unmarked) [Omeprazole form A, 5-methoxy-2-[[(4-methoxy-3,5-dimethyl-2-pyridinyl)methyl]sulfinyl]-1H-benzimidazole]		thermodynamically more stable; also recorded: thermo-dynamically more stable than omeprazole form B
